Laboratory results as given in PMC6105524 (Lipids, 2018).
Read-outs that look alike come from different tables or passages of the source. Values belong to the molecule of their own block, whether it stands above or below them.

Experiments:
[1] = Plasma unlabeled fatty acid concentrations; format: in vivo, human
[2] = compartmental modeling, humans; ref Pawlosky et al. 2001; cited from earlier work
[3] = ref Domenichiello et al. 2014, Domenichiello et al. 2016, Metherel et al. 2018, cited from earlier work
[4] = format: in vivo, human; conditions: for F (turnover of esterified n-3 HUFA in plasma): Jsyn / amount in plasma total lipids; for Time first detected in plasma: after beginning infusion; for Total esterified amount in plasma at 7 h: 7 h of infusion
[5] = subject S01, unlabeled, mean of 17 time points, low linoleate diet
[6] = subject S02, unlabeled, mean of 17 time points, low linoleate diet
[7] = subject S01, 8 h iv infusion of d5-ALA-albumin 0.78 mg/kg BW/hr
[8] = subject S01, k1 x unesterified ALA 2.52 nmol/mL
[9] = subject S02, 8 h iv infusion of d5-ALA-albumin 0.78 mg/kg BW/hr
[10] = subject S02, k1 x unesterified ALA 4.74 nmol/mL

Molecule: CCCCCCCCCCCCCC(=O)O [14:0]
Fatty acid concentration in plasma total lipids (mean) [1, 5]: 43.9 nmol/mL | Fatty acid concentration in plasma total lipids (mean) [1, 6]: 36.8 nmol/mL

Molecule: CCCCCCCCCCCCCCCC(=O)O [16:0]
Fatty acid concentration in plasma total lipids (mean) [1, 5]: 1265 nmol/mL | Fatty acid concentration in plasma total lipids (mean) [1, 6]: 1152 nmol/mL

Molecule: CCCCCC/C=C\CCCCCCCC(=O)O [16:1n-7]
Fatty acid concentration in plasma total lipids (mean) [1, 5]: 153 nmol/mL | Fatty acid concentration in plasma total lipids (mean) [1, 6]: 91.9 nmol/mL

Molecule: CCCCCCCCCCCCCCCCCC(=O)O [18:0]
Fatty acid concentration in plasma total lipids (mean) [1, 5]: 367 nmol/mL | Fatty acid concentration in plasma total lipids (mean) [1, 6]: 374 nmol/mL

Molecule: CCCCCC/C=C/CCCCCCCCCC(=O)O [18:1n-7]
Fatty acid concentration in plasma total lipids (mean) [1, 5]: 98.0 nmol/mL | Fatty acid concentration in plasma total lipids (mean) [1, 6]: 104 nmol/mL

Fatty acid concentration in plasma total lipids (mean) ([1]; in vivo): 896 nmol/mL
Molecule: CCCCCCCC/C=C\CCCCCCCC(=O)O [18:1n-9]

Molecule: CCCCC/C=C\C/C=C\C/C=C\CCCCC(=O)O [18:3n-6]
Fatty acid concentration in plasma total lipids (mean) [1, 5]: 15.3 nmol/mL | Fatty acid concentration in plasma total lipids (mean) [1, 6]: 12.3 nmol/mL

Molecule: CCCCCCCC/C=C\CCCCCCCCCC(=O)O [20:1n-9]
Fatty acid concentration in plasma total lipids (mean) [1, 5]: 7.8 nmol/mL | Fatty acid concentration in plasma total lipids (mean) [1, 6]: 9.3 nmol/mL

Molecule: CCCCC/C=C\C/C=C\CCCCCCCCCC(=O)O [20:2n-6]
Fatty acid concentration in plasma total lipids (mean) [1, 5]: 8.6 nmol/mL | Fatty acid concentration in plasma total lipids (mean) [1, 6]: 13.6 nmol/mL

Molecule: CCCCC/C=C\C/C=C\C/C=C\CCCCCCC(=O)O [20:3n-6]
Fatty acid concentration in plasma total lipids (mean) [1, 5]: 98.2 nmol/mL | Fatty acid concentration in plasma total lipids (mean) [1, 6]: 79.1 nmol/mL

Molecule: CCCCCCCCCCCCCCCCCCCCCC(=O)O [22:0]
Fatty acid concentration in plasma total lipids (mean) [1, 5]: 30.5 nmol/mL | Fatty acid concentration in plasma total lipids (mean) [1, 6]: 17.4 nmol/mL

Molecule: CCCCC/C=C\C/C=C\C/C=C\C/C=C\CCCCCC(=O)O [22:4n-6]
Fatty acid concentration in plasma total lipids (mean) [1, 5]: 9.6 nmol/mL | Fatty acid concentration in plasma total lipids (mean) [1, 6]: 8.5 nmol/mL

Molecule: CCCCC/C=C\C/C=C\C/C=C\C/C=C\C/C=C\CCC(=O)O [22:5n-6]
Fatty acid concentration in plasma total lipids (mean) [1, 5]: 16.8 nmol/mL | Fatty acid concentration in plasma total lipids (mean) [1, 6]: 8.0 nmol/mL

Molecule: CCCCCCCCCCCCCCCCCCCCCCCC(=O)O [24:0]
Fatty acid concentration in plasma total lipids (mean) [1, 5]: 21.5 nmol/mL | Fatty acid concentration in plasma total lipids (mean) [1, 6]: 15.2 nmol/mL

Molecule: CCCCCCCC/C=C\CCCCCCCCCCCCCC(=O)O [24:1n-9]
Fatty acid concentration in plasma total lipids (mean) [1, 5]: 48.1 nmol/mL | Fatty acid concentration in plasma total lipids (mean) [1, 6]: 21.8 nmol/mL

Molecule: CC/C=C\C/C=C\C/C=C\CCCCCCCC(=O)O [ALA, α-linolenic acid]
Plasma concentration of unesterified unlabeled ALA ([1]; subject S01): 2.52 µM | Fatty acid concentration in plasma total lipids (mean) [1, 5]: 24.3 nmol/mL | Plasma concentration of unesterified unlabeled ALA ([1]; subject S02): 4.74 µM | Fatty acid concentration in plasma total lipids (mean) [1, 6]: 33.5 nmol/mL

Smax (maximal first derivative of plasma total amount time-course of newly synthesized d5-n-3 HUFA) ([4]; subject S01): 0.67 nmol/min | k1 (synthesis-secretion coefficient) ([4]; subject S01): 0.39 mL/min | Time at Smax [4, 7]: 109 min | F (turnover of esterified n-3 HUFA in plasma) ([4]; subject S01): 2.6e-06 min⁻¹ | Jsyn (whole body synthesis-secretion rate from circulating unesterified 18:3n-3) [4, 8]: 0.99 nmol/min | Smax (maximal first derivative of plasma total amount time-course of newly synthesized d5-n-3 HUFA) ([4]; subject S02): 0.21 nmol/min | k1 (synthesis-secretion coefficient) ([4]; subject S02): 0.12 mL/min | Time at Smax [4, 9]: 125 min | F (turnover of esterified n-3 HUFA in plasma) ([4]; subject S02): 3.7e-06 min⁻¹ | Jsyn (whole body synthesis-secretion rate from circulating unesterified 18:3n-3) [4, 10]: 0.56 nmol/min
Molecule: CC/C=C\C/C=C\C/C=C\C/C=C\C/C=C\C/C=C\CCC(=O)O [DHA, Docosahexaenoic acid]
Rate of mass flow from immediate precursor [2]: 0.464 µmol/day | Whole body synthesis-secretion rate of DHA from circulating ALA ([3]; rats consuming a high ALA diet): 1.5 µmol/day | Whole body synthesis-secretion rate of DHA from circulating ALA ([3]; rats consuming a low ALA containing diet): 0.045 µmol/day

Smax (maximal first derivative of plasma total amount time-course of newly synthesized d5-n-3 HUFA) ([4]; subject S01): 2.43 nmol/min | k1 (synthesis-secretion coefficient) ([4]; subject S01): 1.44 mL/min | Time at Smax [4, 7]: 94 min | F (turnover of esterified n-3 HUFA in plasma) ([4]; subject S01): 8.8e-05 min⁻¹ | Jsyn (whole body synthesis-secretion rate from circulating unesterified 18:3n-3) [4, 8]: 3.62 nmol/min | Smax (maximal first derivative of plasma total amount time-course of newly synthesized d5-n-3 HUFA) ([4]; subject S02): 4.14 nmol/min | k1 (synthesis-secretion coefficient) ([4]; subject S02): 2.32 mL/min | Time at Smax [4, 9]: 156 min | F (turnover of esterified n-3 HUFA in plasma) ([4]; subject S02): 0.00019 min⁻¹ | Jsyn (whole body synthesis-secretion rate from circulating unesterified 18:3n-3) [4, 10]: 11.0 nmol/min
Molecule: CC/C=C\C/C=C\C/C=C\C/C=C\C/C=C\CCCCCC(=O)O [DPAn-3, docosapentaenoic acid]
Rate of mass flow from immediate precursor [2]: 0.075 µmol/day

Smax (maximal first derivative of plasma total amount time-course of newly synthesized d5-n-3 HUFA) ([4]; subject S01): 3.23 nmol/min | k1 (synthesis-secretion coefficient) ([4]; subject S01): 1.91 mL/min | Time at Smax [4, 7]: 190 min | F (turnover of esterified n-3 HUFA in plasma) ([4]; subject S01): 7.7e-05 min⁻¹ | Jsyn (whole body synthesis-secretion rate from circulating unesterified 18:3n-3) [4, 8]: 4.81 nmol/min | Smax (maximal first derivative of plasma total amount time-course of newly synthesized d5-n-3 HUFA) ([4]; subject S02): 2.29 nmol/min | k1 (synthesis-secretion coefficient) ([4]; subject S02): 1.29 mL/min | Time at Smax [4, 9]: 215 min | F (turnover of esterified n-3 HUFA in plasma) ([4]; subject S02): 0.00015 min⁻¹ | Jsyn (whole body synthesis-secretion rate from circulating unesterified 18:3n-3) [4, 10]: 6.09 nmol/min
Molecule: CC/C=C\C/C=C\C/C=C\C/C=C\C/C=C\CCCC(=O)O [EPA, eicosapentaenoic acid]
Rate of mass flow from immediate precursor [2]: 0.021 µmol/day

Molecule: CC/C=C\C/C=C\C/C=C\C/C=C\C/C=C\CCCCCCCC(=O)O [TPAn-3, tetracosapentaenoic acid]
Fatty acid concentration in plasma total lipids (mean) [1, 5]: 2.1 nmol/mL | Fatty acid concentration in plasma total lipids (mean) [1, 6]: 2.0 nmol/mL | Jsyn (whole-body synthesis-secretion rate) ([4]; both subjects): 0.5 to 0.6 nmol/min | Smax (maximal first derivative of plasma total amount time-course of newly synthesized d5-n-3 HUFA) ([4]; subject S01): 0.39 nmol/min | k1 (synthesis-secretion coefficient) ([4]; subject S01): 0.23 mL/min | Time at Smax [4, 7]: 98 min | F (turnover of esterified n-3 HUFA in plasma) ([4]; subject S01): 7.4e-05 min⁻¹ | Jsyn (whole body synthesis-secretion rate from circulating unesterified 18:3n-3) [4, 8]: 0.58 nmol/min | Smax (maximal first derivative of plasma total amount time-course of newly synthesized d5-n-3 HUFA) ([4]; subject S02): 0.22 nmol/min | k1 (synthesis-secretion coefficient) ([4]; subject S02): 0.12 mL/min | Time at Smax [4, 9]: 150 min | F (turnover of esterified n-3 HUFA in plasma) ([4]; subject S02): 0.0001 min⁻¹ | Jsyn (whole body synthesis-secretion rate from circulating unesterified 18:3n-3) [4, 10]: 0.58 nmol/min

Plasma concentration of unesterified d5-18:3n-3 at 6 h ([4]; in vivo): 4.37 µM | Time to reach steady-state plasma concentration of infused unesterified tracer ([4]; in vivo): about 10 min
Molecule: [2H]C([2H])([2H])C([2H])([2H])/C=C\C/C=C\C/C=C\CCCCCCCC(=O)O [d5-18:3n-3, d5–17, 17, 18, 18, 18-18:3n-3, reference compound]

Time at Smax ([4]; both subjects): about 200 min | Time to achieve steady-state plasma concentration of esterified d5-HUFA ([4]; both subjects): about 5 hr | Smax (maximal first derivative of plasma total amount time-course of newly synthesized d5-n-3 HUFA) ([4]; subject S01): 3.23 nmol/min | Smax (maximal first derivative of plasma total amount time-course of newly synthesized d5-n-3 HUFA) ([4]; subject S02): 2.29 nmol/min
Molecule: [2H]C([2H])([2H])C([2H])([2H])/C=C\C/C=C\C/C=C\C/C=C\C/C=C\CCCC(=O)O [d5-20:5n-3]

Time first detected in plasma [4]: 40 min | Time for which plasma amount increased before leveling off ([4]; both subjects): up to 4 h | Time to achieve steady-state plasma concentration of esterified d5-HUFA ([4]; both subjects): about 5 hr | Smax (maximal first derivative of plasma total amount time-course of newly synthesized d5-n-3 HUFA) ([4]; subject S01): 2.43 nmol/min | Total esterified amount in plasma at 7 h ([4]; subject S01): 580 nmol | Time at Smax [4, 7]: 94 min | Smax (maximal first derivative of plasma total amount time-course of newly synthesized d5-n-3 HUFA) ([4]; subject S02): 4.14 nmol/min | Total esterified amount in plasma at 7 h ([4]; subject S02): 920 nmol | Time at Smax [4, 9]: 156 min
Molecule: [2H]C([2H])([2H])C([2H])([2H])/C=C\C/C=C\C/C=C\C/C=C\C/C=C\CCCCCC(=O)O [d5-22:5n-3]

Time first detected in plasma [4]: 40 min | Time for which plasma amount increased before leveling off ([4]; both subjects): up to 4 h | Time to achieve steady-state plasma concentration of esterified d5-HUFA ([4]; both subjects): about 5 hr | Smax (maximal first derivative of plasma total amount time-course of newly synthesized d5-n-3 HUFA) ([4]; subject S01): 0.67 nmol/min | Total esterified amount in plasma at 7 h ([4]; subject S01): 148 nmol | Smax (maximal first derivative of plasma total amount time-course of newly synthesized d5-n-3 HUFA) ([4]; subject S02): 0.21 nmol/min | Total esterified amount in plasma at 7 h ([4]; subject S02): 44 nmol
Molecule: [2H]C([2H])([2H])C([2H])([2H])/C=C\C/C=C\C/C=C\C/C=C\C/C=C\C/C=C\CCC(=O)O [d5-22:6n-3]

Molecule: tetracosahexaenoic acid [THA]
Fatty acid concentration in plasma total lipids (mean) [1, 5]: 2.8 nmol/mL | Fatty acid concentration in plasma total lipids (mean) [1, 6]: 1.5 nmol/mL | Jsyn (whole-body synthesis-secretion rate) ([4]; both subjects): 0.5 to 0.6 nmol/min | Smax (maximal first derivative of plasma total amount time-course of newly synthesized d5-n-3 HUFA) ([4]; subject S01): 0.41 nmol/min | k1 (synthesis-secretion coefficient) ([4]; subject S01): 0.24 mL/min | Time at Smax [4, 7]: 102 min | F (turnover of esterified n-3 HUFA in plasma) ([4]; subject S01): 5.8e-05 min⁻¹ | Jsyn (whole body synthesis-secretion rate from circulating unesterified 18:3n-3) [4, 8]: 0.61 nmol/min | Smax (maximal first derivative of plasma total amount time-course of newly synthesized d5-n-3 HUFA) ([4]; subject S02): 0.17 nmol/min | k1 (synthesis-secretion coefficient) ([4]; subject S02): 0.10 mL/min | Time at Smax [4, 9]: 125 min | F (turnover of esterified n-3 HUFA in plasma) ([4]; subject S02): 0.0001 min⁻¹ | Jsyn (whole body synthesis-secretion rate from circulating unesterified 18:3n-3) [4, 10]: 0.46 nmol/min
